According to ChEMBL document CHEMBL1140284, “A three-dimensional pharmacophore model for 5-hydroxytryptamine6 (5-HT6) receptor antagonists” (J Med Chem, 2005):

target: 5-hydroxytryptamine receptor 6 (Homo sapiens, UniProt P50406); experiment: Binding affinity for human 5-hydroxytryptamine 6 receptor
Sequence (P50406 whole entry): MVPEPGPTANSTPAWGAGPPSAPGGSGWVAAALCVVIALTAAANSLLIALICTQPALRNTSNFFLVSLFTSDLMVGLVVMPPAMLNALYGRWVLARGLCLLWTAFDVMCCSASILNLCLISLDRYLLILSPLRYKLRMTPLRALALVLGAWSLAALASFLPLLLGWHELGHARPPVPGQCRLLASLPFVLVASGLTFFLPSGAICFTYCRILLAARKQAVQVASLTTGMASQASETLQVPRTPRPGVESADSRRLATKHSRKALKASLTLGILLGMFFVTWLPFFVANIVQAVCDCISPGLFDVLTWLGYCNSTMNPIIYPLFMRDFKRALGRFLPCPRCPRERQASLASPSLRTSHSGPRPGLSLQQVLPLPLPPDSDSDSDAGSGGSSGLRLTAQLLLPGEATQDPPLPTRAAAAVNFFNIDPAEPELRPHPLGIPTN

| Ki [nM] | SMILES |
| --- | --- |
| 7.94 | Cc1ccc(S(=O)(=O)n2cc3c4c(cccc42)[C@H](O)[C@@H](N(C)C)C3)cc1 |
| 2 | CN(C)CCn1ccc2cc(NS(=O)(=O)c3c(Cl)nc4sccn34)ccc21 |
| 1260 | Nc1ccc(S(=O)(=O)Nc2ccc3cc[nH]c3c2)cc1 |
| 63.1 | Nc1ccc(S(=O)(=O)Nc2cccc3[nH]ccc23)cc1 |
| 79.4 | Cc1c(S(=O)(=O)Nc2ccc3ncc(N4CCN(C)CC4)cc3c2)sc2ccc(Cl)cc12 |
| 39.8 | COc1cc(N)cc(NS(=O)(=O)c2ccc(N)cc2)c1 |
| 12.6 | Cc1cn(S(=O)(=O)c2ccc(N)cc2)c2ccccc12 |
| 3.98 | CSc1nc2ccccn2c(=N)c1S(=O)(=O)c1ccccc1 |
| 631 | Nc1ccc(S(=O)(=O)Nc2cccc(N)c2)cc1 |
| 0.126 | CON1CCN(c2ccc(S(=O)(=O)c3cccc4ccccc34)cc2)CC1 |
| 3.16 | NCc1cn(S(=O)(=O)c2ccccc2)c2ccccc12 |
| 31.6 | Nc1ccc(S(=O)(=O)n2c3c(c4ccccc42)CCCC3)cc1 |
| 50.1 | O=S(=O)(Nc1ccc2ccn(CCN3CCCC3)c2c1)c1c(Cl)nc2sccn12 |
| 6.31 | NCc1cn(S(=O)(=O)c2ccc(N)cc2)c2ccccc12 |
| 0.2 | O=S(=O)(c1ccc2ccccc2c1)n1ccc2ccc(N3CCN4C=CCC4C3)cc21 (stereo unspecified) |
| 1000 | O=S(=O)(Nc1ccc2c(ccn2CCCN2CCCCC2)c1)c1c(Cl)nc2sccn12 |
| 50.1 | Nc1ccc(S(=O)(=O)c2cc(Br)nc(Br)c2)cc1 |
| 1.26 | O=S(=O)(c1cccc2ccccc12)n1ccc2ccc(C3=CCN4CCCC4C3)cc21 (stereo unspecified) |
| 15.8 | CNc1cc(NS(=O)(=O)c2ccc(N)cc2)cc(NC)n1 |
| 50.1 | Nc1ccc(S(=O)(=O)Nc2cc(N)nc(Br)c2)cc1 |

| SMILES | Ki [nM] |
| --- | --- |
| COc1cccc(-c2noc(-c3[nH]c4ccccc4c3CCN)n2)c1 | 1.26 |
| CCOC(=O)c1[nH]c2ccccc2c1CCN | 20 |
| COc1cccc2c(CCN)cn(S(=O)(=O)c3ccc4ccccc4c3)c12 | 5.01 |
| CC[N+](C)(CC)CCc1cn(S(=O)(=O)c2ccc(NC(C)=O)cc2)c2ccc(OC)cc12 | 251 |
| O=S(=O)(c1ccccc1)c1cc2c(N3CCNCC3)cccc2[nH]1 | 0.126 |
| NCCc1c[nH]c2ccc(NS(=O)(=O)c3ccc4c(Cl)cccc4c3)cc12 | 0.2 |
| COc1ccc(NS(=O)(=O)c2cccc(I)c2)cc1N1CCNCC1 | 0.794 |
| COc1ccc2c(c1)c(CCN)cn2S(=O)(=O)c1cccc2ccccc12 | 0.794 |
| COc1ccc2[nH]c(-c3ccccc3)c(CCN(C)C)c2c1 | 50.1 |
| COc1ccc2c(c1)c(CCN(C)C)cn2S(=O)(=O)c1ccccc1 | 2.51 |
| CN(C)CCc1cn(S(=O)(=O)c2ccccc2)c2ccccc12 | 3.16 |
